Measurements as given in PubChem BioAssay (NCI).
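1) Cells in 96-well plates. 2) Compound, 48 h, 5 concentrations. 3) Linear interpolation between surrounding doses. 4) Unreached endpoint = highest concentration. The concentration for full growth arrest is given as TGI.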

Assays:
Test in all cases: NCI anticancer screen, dose series, 48 h
LOX IMVI melanoma = test system: LOX IMVI melanoma
MCF7 breast = test system: MCF7 breast
ACHN renal = test system: ACHN renal
UO-31 renal = test system: UO-31 renal
NCI-H460 lung = test system: NCI-H460 lung
CCRF-CEM leukemia = test system: CCRF-CEM leukemia
MDA-MB-435 = test system: MDA-MB-435
A498 renal = test system: A498 renal
T-47D breast = test system: T-47D breast
NCI-H226 lung = test system: NCI-H226 lung
NCI/ADR-RES ovarian = test system: NCI/ADR-RES ovarian
PC-3 prostate = test system: PC-3 prostate
SK-MEL-2 melanoma = test system: SK-MEL-2 melanoma
HOP-92 NSCLC = test system: HOP-92 NSCLC
HT29 colon = test system: HT29 colon
SW-620 colon = test system: SW-620 colon
K-562 leukemia = test system: K-562 leukemia
EKVX NSCLC = test system: EKVX NSCLC
MOLT-4 leukemia = test system: MOLT-4 leukemia
MDA-MB-231 breast = test system: MDA-MB-231 breast
SN12C renal = test system: SN12C renal
SNB-19 CNS = test system: SNB-19 CNS
NCI-H522 lung = test system: NCI-H522 lung
DU-145 prostate = test system: DU-145 prostate
UACC-62 melanoma = test system: UACC-62 melanoma
SR leukemia = test system: SR leukemia
BT-549 breast = test system: BT-549 breast
RPMI-8226 leukemia = test system: RPMI-8226 leukemia
SF-539 CNS = test system: SF-539 CNS
IGROV1 ovarian = test system: IGROV1 ovarian
COLO 205 colon = test system: COLO 205 colon
U251 CNS = test system: U251 CNS
MDA-N = test system: MDA-N
A549 NSCLC = test system: A549 NSCLC
TK-10 renal = test system: TK-10 renal
MALME-3M melanoma = test system: MALME-3M melanoma
SF-268 CNS = test system: SF-268 CNS
HL-60(TB) leukemia = test system: HL-60(TB) leukemia
NCI-H23 lung = test system: NCI-H23 lung
SF-295 CNS = test system: SF-295 CNS
786-0 renal = test system: 786-0 renal
M14 melanoma = test system: M14 melanoma
HOP-62 NSCLC = test system: HOP-62 NSCLC
HCT-15 colon = test system: HCT-15 colon
OVCAR-8 ovarian = test system: OVCAR-8 ovarian
HCT-116 colon = test system: HCT-116 colon
KM12 colon = test system: KM12 colon
SK-MEL-5 melanoma = test system: SK-MEL-5 melanoma
SK-MEL-28 melanoma = test system: SK-MEL-28 melanoma
OVCAR-5 ovarian = test system: OVCAR-5 ovarian
SK-OV-3 ovarian = test system: SK-OV-3 ovarian
OVCAR-3 ovarian = test system: OVCAR-3 ovarian
CAKI-1 renal = test system: CAKI-1 renal
UACC-257 melanoma = test system: UACC-257 melanoma
HCC-2998 colon = test system: HCC-2998 colon
OVCAR-4 ovarian = test system: OVCAR-4 ovarian
HS 578T breast = test system: HS 578T breast
SNB-75 CNS = test system: SNB-75 CNS
RXF 393 renal = test system: RXF 393 renal

O=C(NNC(=O)c1ccccc1O)c1ccccc1O
TGI (LOX IMVI melanoma): > 100 µM | TGI (MCF7 breast): > 100 µM | TGI (ACHN renal): > 100 µM | TGI (UO-31 renal): > 100 µM | TGI (NCI-H460 lung): > 100 µM | TGI (CCRF-CEM leukemia): > 100 µM | TGI (MDA-MB-435): > 100 µM | TGI (A498 renal): > 100 µM | TGI (T-47D breast): > 78.4 µM | TGI (NCI-H226 lung): > 100 µM | TGI (NCI/ADR-RES ovarian): > 100 µM | TGI (PC-3 prostate): > 100 µM | TGI (SK-MEL-2 melanoma): > 100 µM | TGI (HOP-92 NSCLC): > 100 µM | TGI (HT29 colon): > 100 µM | TGI (SW-620 colon): > 100 µM | TGI (K-562 leukemia): > 100 µM | TGI (EKVX NSCLC): > 100 µM | TGI (MOLT-4 leukemia): > 91.7 µM | TGI (MDA-MB-231 breast): > 100 µM | TGI (SN12C renal): > 100 µM | TGI (SNB-19 CNS): > 100 µM | TGI (NCI-H522 lung): 3.6 µM | TGI (DU-145 prostate): > 100 µM | TGI (UACC-62 melanoma): > 100 µM | TGI (SR leukemia): > 31.1 µM | TGI (BT-549 breast): > 100 µM | TGI (RPMI-8226 leukemia): > 100 µM | TGI (SF-539 CNS): 6.16 µM | TGI (IGROV1 ovarian): > 34.8 µM | TGI (COLO 205 colon): > 38.9 µM | TGI (U251 CNS): > 100 µM | TGI (MDA-N): > 100 µM | TGI (A549 NSCLC): > 100 µM | TGI (TK-10 renal): > 100 µM | TGI (MALME-3M melanoma): > 100 µM | TGI (SF-268 CNS): > 58.4 µM | TGI (HL-60(TB) leukemia): 0.944 µM | TGI (NCI-H23 lung): > 100 µM | TGI (SF-295 CNS): > 100 µM | TGI (786-0 renal): > 100 µM | TGI (M14 melanoma): 25.4 µM | TGI (HOP-62 NSCLC): > 100 µM | TGI (HCT-15 colon): > 100 µM | TGI (OVCAR-8 ovarian): > 100 µM | TGI (HCT-116 colon): > 100 µM | TGI (KM12 colon): > 100 µM | TGI (SK-MEL-5 melanoma): > 34.5 µM | TGI (SK-MEL-28 melanoma): > 100 µM | TGI (OVCAR-5 ovarian): > 100 µM | TGI (SK-OV-3 ovarian): > 100 µM | TGI (OVCAR-3 ovarian): > 100 µM | TGI (CAKI-1 renal): > 100 µM

O=CNCCCN1CCN(CCCNC=O)CC1
TGI (LOX IMVI melanoma): > 100 µM | TGI (MCF7 breast): > 100 µM | TGI (ACHN renal): > 100 µM | TGI (UO-31 renal): > 100 µM | TGI (CCRF-CEM leukemia): > 100 µM | TGI (UACC-257 melanoma): > 100 µM | TGI (MDA-MB-435): > 100 µM | TGI (A498 renal): > 100 µM | TGI (T-47D breast): > 100 µM | TGI (NCI-H226 lung): > 100 µM | TGI (NCI/ADR-RES ovarian): > 100 µM | TGI (PC-3 prostate): > 100 µM | TGI (SK-MEL-2 melanoma): > 100 µM | TGI (HOP-92 NSCLC): > 100 µM | TGI (HT29 colon): > 100 µM | TGI (SW-620 colon): > 100 µM | TGI (K-562 leukemia): > 100 µM | TGI (EKVX NSCLC): > 100 µM | TGI (MOLT-4 leukemia): > 100 µM | TGI (MDA-MB-231 breast): > 100 µM | TGI (SN12C renal): > 100 µM | TGI (SNB-19 CNS): > 100 µM | TGI (NCI-H522 lung): 4.07 µM | TGI (DU-145 prostate): > 100 µM | TGI (UACC-62 melanoma): > 100 µM | TGI (SR leukemia): > 100 µM | TGI (BT-549 breast): > 100 µM | TGI (RPMI-8226 leukemia): > 100 µM | TGI (SF-539 CNS): > 100 µM | TGI (IGROV1 ovarian): > 100 µM | TGI (HCC-2998 colon): > 100 µM | TGI (COLO 205 colon): > 100 µM | TGI (U251 CNS): > 100 µM | TGI (MDA-N): > 100 µM | TGI (A549 NSCLC): > 100 µM | TGI (TK-10 renal): > 100 µM | TGI (SF-268 CNS): 9.78 µM | TGI (HL-60(TB) leukemia): > 100 µM | TGI (OVCAR-4 ovarian): > 100 µM | TGI (NCI-H23 lung): > 100 µM | TGI (SF-295 CNS): > 100 µM | TGI (786-0 renal): > 100 µM | TGI (M14 melanoma): > 100 µM | TGI (HOP-62 NSCLC): > 100 µM | TGI (HCT-15 colon): > 100 µM | TGI (OVCAR-8 ovarian): > 100 µM | TGI (HCT-116 colon): > 100 µM | TGI (KM12 colon): > 100 µM | TGI (SK-MEL-5 melanoma): > 100 µM | TGI (SK-MEL-28 melanoma): > 100 µM | TGI (OVCAR-5 ovarian): > 100 µM | TGI (SK-OV-3 ovarian): > 100 µM | TGI (OVCAR-3 ovarian): > 100 µM | TGI (CAKI-1 renal): > 100 µM

Cc1[nH]c2nccn2c(=O)c1CCCl
TGI (LOX IMVI melanoma): 33.6 µM | TGI (MCF7 breast): > 100 µM | TGI (ACHN renal): 55 µM | TGI (UO-31 renal): 91.4 µM | TGI (HS 578T breast): > 100 µM | TGI (NCI-H460 lung): 49.5 µM | TGI (CCRF-CEM leukemia): 85.4 µM | TGI (UACC-257 melanoma): > 100 µM | TGI (A498 renal): 61.8 µM | TGI (T-47D breast): > 100 µM | TGI (NCI-H226 lung): > 100 µM | TGI (NCI/ADR-RES ovarian): 58.1 µM | TGI (PC-3 prostate): > 100 µM | TGI (HOP-92 NSCLC): 66.1 µM | TGI (HT29 colon): > 100 µM | TGI (SW-620 colon): 50.8 µM | TGI (K-562 leukemia): 93.5 µM | TGI (EKVX NSCLC): > 100 µM | TGI (MOLT-4 leukemia): 52.9 µM | TGI (MDA-MB-231 breast): > 100 µM | TGI (SN12C renal): 45.4 µM | TGI (SNB-19 CNS): > 100 µM | TGI (SNB-75 CNS): > 100 µM | TGI (NCI-H522 lung): 49.9 µM | TGI (DU-145 prostate): 66.7 µM | TGI (UACC-62 melanoma): 53.7 µM | TGI (SR leukemia): 90.7 µM | TGI (BT-549 breast): 62.5 µM | TGI (RPMI-8226 leukemia): 62.9 µM | TGI (SF-539 CNS): 36.6 µM | TGI (IGROV1 ovarian): 61.8 µM | TGI (HCC-2998 colon): 34.1 µM | TGI (COLO 205 colon): > 100 µM | TGI (U251 CNS): 43.8 µM | TGI (MDA-N): 46.6 µM | TGI (A549 NSCLC): > 100 µM | TGI (TK-10 renal): 96.7 µM | TGI (MALME-3M melanoma): 41.3 µM | TGI (SF-268 CNS): > 100 µM | TGI (HL-60(TB) leukemia): 57.2 µM | TGI (RXF 393 renal): 38.9 µM | TGI (OVCAR-4 ovarian): 40 µM | TGI (NCI-H23 lung): 41.6 µM | TGI (SF-295 CNS): > 100 µM | TGI (786-0 renal): 64.6 µM | TGI (M14 melanoma): > 100 µM | TGI (HOP-62 NSCLC): 60 µM | TGI (HCT-15 colon): > 100 µM | TGI (OVCAR-8 ovarian): 87.6 µM | TGI (HCT-116 colon): 32.3 µM | TGI (KM12 colon): 42.2 µM | TGI (SK-MEL-5 melanoma): 31.3 µM | TGI (SK-MEL-28 melanoma): > 100 µM | TGI (OVCAR-5 ovarian): > 100 µM | TGI (SK-OV-3 ovarian): 63 µM | TGI (OVCAR-3 ovarian): 62.1 µM
